Test system: bacterial colonies
Experiment: Validation of the rapid test strip on bacterial colonies sensitive or resistant to third-generation cephalosporins (Table 12)
Type: biochemical
Design: key: A signal on the TL is considered as “P”; An absence of signal on the TL is defined as “N”
Description: In order to validate the test strip on bacterial colonies for its clinical use, […].
In order to carry out these tests, all of the solutions below have been prepared in the buffer strip having, for composition: 0.1 M pH 8 Tris buffer/HCL+0.15 M NaCl+0.5% Tween 20+1% chaps+0.01% sodium azide. […] The tracer is in dried format on the CP. […] A CL was produced. It consists of anti-tracer antibodies. The migration is carried out in a plastic cassette.
A bacterial colony was sampled from an URI-4 agar with a 1 μl ose, then deposited in the previously prepared Eppendorf tube. The tube was vortexed for five seconds, then incubated for 30 minutes at ambient temperature. Once the incubation was finished, 100 μl was sampled and deposited on the test strip. The reading is carried out after 10 minutes migration. A signal on the TL is considered as “P”. An absence of signal on the TL is defined as “N”.

CO/N=C(\C(=O)N[C@@H]1C(=O)N2C(C(=O)O)=C(COC(C)=O)CS[C@H]12)c1csc(N)n1 [non-hydrolysed cefotaxime, cefotaxime]
results of the test (C. freundii, CMY-135 + MOX-9 + OXA-372 + OXA-10, isolate number 1, strains capable of hydrolysing cefotaxime): P
results of the test (C. freundii, CMY-150 + LMB-1, isolate number 1, strains capable of hydrolysing cefotaxime): P
results of the test (C. freundii, CTX-M + VIM + OXA-48, isolate number 1, strains capable of hydrolysing cefotaxime): P
results of the test (C. freundii, CTX-M-1, isolate number 1, strains capable of hydrolysing cefotaxime): P
results of the test (C. freundii, CTX-M-15 + TEM-1 + CMY-48 + OXA-48 like, isolate number 1, strains capable of hydrolysing cefotaxime): P
results of the test (C. freundii, CTX-M-15, isolate number 1, strains capable of hydrolysing cefotaxime): P
results of the test (C. freundii, N/A, isolate number 1, strains not capable of hydrolysing cefotaxime): N
results of the test (C. freundii, SHV-12 + TEM-1 + OXA-48, isolate number 1, strains capable of hydrolysing cefotaxime): P
results of the test (C. freundii, SHV-12, isolate number 1, strains capable of hydrolysing cefotaxime): P
results of the test (C. freundii, TEM-1 + KPC-2, isolate number 1, strains capable of hydrolysing cefotaxime): P
results of the test (C. freundii, TEM-1 + VIM-2 + OXA-9 + OXA-10, isolate number 1, strains capable of hydrolysing cefotaxime): P
results of the test (C. freundii, TEM-1 + VIM-2, isolate number 1, strains capable of hydrolysing cefotaxime): P
results of the test (C. freundii, TEM-3 + Overexpressed AmpC, isolate number 2, strains capable of hydrolysing cefotaxime): P
results of the test (C. koserii, CTX-M-1, isolate number 1, strains capable of hydrolysing cefotaxime): P
results of the test (C. koserii, TEM-1 + OXA-48, isolate number 1, strains capable of hydrolysing cefotaxime): P
results of the test (E. asburiae, IMI-2, isolate number 2, strains not capable of hydrolysing cefotaxime): N
results of the test (E. asburiae, IMI-17, isolate number 1, strains not capable of hydrolysing cefotaxime): N
results of the test (E. cloacae, CTX-M-9, isolate number 1, strains capable of hydrolysing cefotaxime): P
results of the test (E. cloacae, FRI-1, isolate number 1, strains capable of hydrolysing cefotaxime): P
results of the test (E. cloacae, GES-6, isolate number 1, strains capable of hydrolysing cefotaxime): P
results of the test (E. cloacae, GIM-1, isolate number 1, strains capable of hydrolysing cefotaxime): P
results of the test (E. cloacae, IMI-1, isolate number 1, strains not capable of hydrolysing cefotaxime): N
results of the test (E. cloacae, IMI-3 + Overexpressed AmpC, isolate number 1, strains capable of hydrolysing cefotaxime): P
results of the test (E. cloacae, N/A, isolate number 2, strains not capable of hydrolysing cefotaxime): N
results of the test (E. cloacae, Overexpressed AmpC, isolate number 7, strains capable of hydrolysing cefotaxime): P
results of the test (E. cloacae, TEM-3, isolate number 1, strains capable of hydrolysing cefotaxime): P
results of the test (E. cloacae, TMB-1, isolate number 1, strains capable of hydrolysing cefotaxime): P
results of the test (E. coli, CTX-M + NDM-5 + OXA-181, isolate number 1, strains capable of hydrolysing cefotaxime): P
results of the test (E. coli, CTX-M + SHV + NDM-1 + OXA-48, isolate number 1, strains capable of hydrolysing cefotaxime): P
results of the test (E. coli, CTX-M-9 + TEM-1 + KPC-2, isolate number 1, strains capable of hydrolysing cefotaxime): P
results of the test (E. coli, CTX-M-15 + CMY-2 + OXA-204 + OXA-1, isolate number 1, strains capable of hydrolysing cefotaxime): P
results of the test (E. coli, CTX-M-15 + CMY-4 + OXA-204 + OXA-1, isolate number 1, strains capable of hydrolysing cefotaxime): P
results of the test (E. coli, CTX-M-15 + CMY-4 + OXA-204, isolate number 1, strains capable of hydrolysing cefotaxime): P
results of the test (E. coli, CTX-M-15 + CMY-6 + NDM-4, isolate number 1, strains capable of hydrolysing cefotaxime): P
results of the test (E. coli, CTX-M-15 + NDM-6 + OXA-1, isolate number 1, strains capable of hydrolysing cefotaxime): P
results of the test (E. coli, CTX-M-15 + OXA-232 + OXA-1, isolate number 1, strains capable of hydrolysing cefotaxime): P
results of the test (E. coli, CTX-M-15 + TEM-1 + CMY + NDM-1, isolate number 1, strains capable of hydrolysing cefotaxime): P
results of the test (E. coli, CTX-M-93, isolate number 1, strains not capable of hydrolysing cefotaxime): N
results of the test (E. coli, TEM-1 + CMY-16 + NDM-1 + OXA-1 + OXA-10, isolate number 1, strains capable of hydrolysing cefotaxime): P
results of the test (E. coli, TEM-1 + NDM-9 + OXA-1, isolate number 1, strains capable of hydrolysing cefotaxime): P
results of the test (K. oxytoca, CTX-M-15, isolate number 2, strains capable of hydrolysing cefotaxime): P
results of the test (K. oxytoca, DHA-1 + SHV-75, isolate number 1, strains capable of hydrolysing cefotaxime): P
results of the test (K. pneumoniae, CMY-4 + OXA-204, isolate number 1, strains capable of hydrolysing cefotaxime): P
results of the test (K. pneumoniae, CTX-M + KPC-3, isolate number 1, strains capable of hydrolysing cefotaxime): P
results of the test (K. pneumoniae, CTX-M + MCR-1, isolate number 2, strains capable of hydrolysing cefotaxime): P
results of the test (K. pneumoniae, CTX-M + NDM-1 + OXA-232, isolate number 1, strains capable of hydrolysing cefotaxime): P
results of the test (K. pneumoniae, CTX-M + NDM-4 + KPC-2, isolate number 1, strains capable of hydrolysing cefotaxime): P
results of the test (K. pneumoniae, CTX-M + NDM-5 + OXA-232, isolate number 1, strains capable of hydrolysing cefotaxime): P
results of the test (K. pneumoniae, CTX-M + OXA-370, isolate number 1, strains capable of hydrolysing cefotaxime): P
results of the test (K. pneumoniae, CTX-M + OXA-519, isolate number 1, strains capable of hydrolysing cefotaxime): P
results of the test (K. pneumoniae, CTX-M + SHV-11 + TEM-1 + OXA-162, isolate number 1, strains capable of hydrolysing cefotaxime): P
results of the test (K. pneumoniae, CTX-M + SHV-12 + GES-5, isolate number 1, strains capable of hydrolysing cefotaxime): P
results of the test (K. pneumoniae, CTX-M-2, isolate number 1, strains capable of hydrolysing cefotaxime): P
results of the test (K. pneumoniae, CTX-M-3 + SHV-1 + TEM-1 + VIM-19, isolate number 1, strains capable of hydrolysing cefotaxime): P
results of the test (K. pneumoniae, CTX-M-3, isolate number 1, strains capable of hydrolysing cefotaxime): P
results of the test (K. pneumoniae, CTX-M-8, isolate number 1, strains capable of hydrolysing cefotaxime): P
results of the test (K. pneumoniae, CTX-M-14 + SHV-11 + TEM-1, isolate number 1, strains capable of hydrolysing cefotaxime): P
results of the test (K. pneumoniae, CTX-M-15 + SHV-1 + TEM-1 + OXA-232 + OXA-1, isolate number 1, strains capable of hydrolysing cefotaxime): P
results of the test (K. pneumoniae, CTX-M-15 + SHV-1 + TEM-1, isolate number 1, strains capable of hydrolysing cefotaxime): P
results of the test (K. pneumoniae, CTX-M-15 + SHV-1, isolate number 1, strains capable of hydrolysing cefotaxime): P
results of the test (K. pneumoniae, CTX-M-15 + SHV-11 + TEM-1 + NDM-1 + OXA-1 + OXA-181, isolate number 1, strains capable of hydrolysing cefotaxime): P
results of the test (K. pneumoniae, CTX-M-15 + SHV-11 + TEM-1 + NDM-1 + OXA-1, isolate number 1, strains capable of hydrolysing cefotaxime): P
results of the test (K. pneumoniae, CTX-M-15 + SHV-11, isolate number 1, strains capable of hydrolysing cefotaxime): P
results of the test (K. pneumoniae, CTX-M-15 + SHV-27 + TEM-1 + NDM-1 + OXA-1 + OXA-181, isolate number 1, strains capable of hydrolysing cefotaxime): P
results of the test (K. pneumoniae, CTX-M-15 + SHV-28 + TEM-1 + CMY + OXA-204, isolate number 1, strains capable of hydrolysing cefotaxime): P
results of the test (K. pneumoniae, CTX-M-15 + SHV-99 + TEM-1, isolate number 1, strains capable of hydrolysing cefotaxime): P
results of the test (K. pneumoniae, CTX-M-15 + TEM-1 + OXA-48, isolate number 1, strains capable of hydrolysing cefotaxime): P
results of the test (K. pneumoniae, CTX-M-15 + TEM, isolate number 1, strains capable of hydrolysing cefotaxime): P
results of the test (K. pneumoniae, CTX-M-15, isolate number 1, strains capable of hydrolysing cefotaxime): P
results of the test (K. pneumoniae, CTX-M-18, isolate number 1, strains capable of hydrolysing cefotaxime): P
results of the test (K. pneumoniae, CTX-M-19, isolate number 1, strains capable of hydrolysing cefotaxime): P
results of the test (K. pneumoniae, DHA-2, isolate number 1, strains capable of hydrolysing cefotaxime): P
results of the test (K. pneumoniae, GES-1, isolate number 1, strains capable of hydrolysing cefotaxime): P
results of the test (K. pneumoniae, IMP-8, isolate number 1, strains capable of hydrolysing cefotaxime): P
results of the test (K. pneumoniae, KPC + VIM, isolate number 1, strains capable of hydrolysing cefotaxime): P
results of the test (K. pneumoniae, KPC-3, isolate number 1, strains capable of hydrolysing cefotaxime): P
results of the test (K. pneumoniae, KPC-4 + NDM-7, isolate number 1, strains capable of hydrolysing cefotaxime): P
results of the test (K. pneumoniae, MCR-1 + SHV-2 + SHV-106 + mgrB truncated in orf by IS5, isolate number 1, strains capable of hydrolysing cefotaxime): P
results of the test (K. pneumoniae, NDM-1, isolate number 1, strains capable of hydrolysing cefotaxime): P
results of the test (K. pneumoniae, NDM-5 + VIM-1 + OXA-181, isolate number 1, strains capable of hydrolysing cefotaxime): P
results of the test (K. pneumoniae, OXA-48, isolate number 1, strains capable of hydrolysing cefotaxime): P
results of the test (K. pneumoniae, OXA-163, isolate number 2, strains capable of hydrolysing cefotaxime): P
results of the test (K. pneumoniae, OXA-517, isolate number 1, strains capable of hydrolysing cefotaxime): P
results of the test (K. pneumoniae, SHV-2a, isolate number 1, strains capable of hydrolysing cefotaxime): P
results of the test (K. pneumoniae, SHV-5 + IMP-1, isolate number 1, strains capable of hydrolysing cefotaxime): P
results of the test (K. pneumoniae, SHV-5 + VIM-1, isolate number 2, strains capable of hydrolysing cefotaxime): P
results of the test (K. pneumoniae, SHV-11 + OXA-48, isolate number 1, strains capable of hydrolysing cefotaxime): P
results of the test (K. pneumoniae, SHV-11 + TEM-1 + KPC-3 + OXA-9, isolate number 1, strains capable of hydrolysing cefotaxime): P
results of the test (K. pneumoniae, SHV-11, isolate number 1, strains capable of hydrolysing cefotaxime): P
results of the test (K. pneumoniae, SHV-12 + IMP-8, isolate number 1, strains capable of hydrolysing cefotaxime): P
results of the test (K. pneumoniae, SHV-36 + TEM-1, isolate number 1, strains capable of hydrolysing cefotaxime): P
results of the test (K. pneumoniae, SHV-38, isolate number 1, strains capable of hydrolysing cefotaxime): P
results of the test (K. pneumoniae, TEM-3, isolate number 1, strains capable of hydrolysing cefotaxime): P
results of the test (P. mirabilis, ACC-1, isolate number 1, strains capable of hydrolysing cefotaxime): P
results of the test (P. mirabilis, CTX-M-71, isolate number 1, strains capable of hydrolysing cefotaxime): P
results of the test (P. mirabilis, N/A, isolate number 1, strains not capable of hydrolysing cefotaxime): N
results of the test (P. mirabilis, OXA-23, isolate number 1, strains not capable of hydrolysing cefotaxime): N
results of the test (P. mirabilis, OXA-58, isolate number 1, strains not capable of hydrolysing cefotaxime): N
results of the test (P. mirabilis, TEM-52, isolate number 1, strains capable of hydrolysing cefotaxime): P
results of the test (Salmonella spp., N/A, isolate number 1, strains not capable of hydrolysing cefotaxime): N

— US20240110220A1, “DETECTING BETA-LACTAMASE ENZYME ACTIVITY” (COMMISSARIAT A L'ENERGIE ATOMIQUE ET AUX ENERGIES …, priority 2021, published 2024)
